{"source": "patent US20090208620A1", "about": "“Alimentary Compositions and Methods For Metabolic Modulation” (VDF FUTURECEUTICALS, INC., priority 2003, published 2009)", "key": {"[1]": {"tested_on": "activated Akt", "assay": "Western immunoblot for activated (phospho-Ser473) Akt in muscle cells", "assay_type": "cell-based, mouse", "conditions": "for FOLD AKT ACTIVATION (OVER CONTROL): cells treated 30 minutes at 37° C; for effect on Akt activity (in words): no concentration stated", "protocol": "(§1) The levels of Glut-4, activated AMPK and activated Akt were measured in mouse muscle cells C2C12 (from ATTC) and in primary culture of human skeletal muscle cells (Clonetics, Inc.) using Western immunoblotting. C2C12 cells were plated at 1.5×1-exp5 cells per mL/well (12-well plate) in standard cell culture medium (DMEM supplemented with 10% fetal bovine serum (FBS), 25 mM glucose, 20 mM Hepes, 4 mM glutamine and 2 mM sodium pyruvate. 48 hrs after the plating, medium was changed to differentiation medium (DMEM supplemented with 5 mM of glucose and 0.5% of FBS) for next 3-4 days to stimulate the formation of myotubes. Three hours before the treatment with selected agents, cells were washed with PBS and transferred to PBS supplemented with 5 mM of glucose.\n(§2) Human skeletal muscle cells (HSKM) were cultured in SKBM-2 mediums provided by Clonetics. 48 hrs after cell plating, medium was changed to SKBM medium to stimulate differentiation of the cells to myotubes. When differentiated, the myotubes were transferred to PBS supplemented with 5 mM glucose for three hrs before the treatment.\n(§3) Analysis of C2C12 cells for the level of activated AMPK, Akt and the level of GLUT-4 was performed in the same experimental system. The cells were treated for 30 minutes at 37° C. […] Subsequently, 20 μg per sample of sample protein was used for Western analysis using NuPage 10% Bis/Tris gels (Invitrogen). After exposure of membranes to primary and secondary antibodies AMPK, AKT or Glut-4 was detected using ECL-Plus (Amersham) following producer's instruction. Chemilumiscent signals were detected by using ChemiDoc system from Biorad. Intensity of detected signals were analyzed and measured using Quantity One software (Biorad). Alternatively, the level of phosphorylated AMPK was detected using ECL kit from Amersham and short exposure to Kodak films.\n(§4) Experimental setup: Cell Culture was followed by treatment with selected contemplated compounds, which was followed by cell lysis and western blot analysis for AMPK, Akt, GLUT4, total AMPK, and total Akt. Signals were acquired accordingly."}, "[2]": {"tested_on": "activated AMPK", "assay": "Western immunoblot for activated (phospho-Thr172) AMPK in muscle cells", "assay_type": "cell-based, mouse", "conditions": "for FOLD AMPK ACTIVATION (OVER CONTROL): cells treated 30 minutes at 37° C; for effect on AMPK activity (in words): no concentration stated", "protocol": "as §1, §2, §3, §4"}}, "note": "Values joined by “and” are separate entries in the source; they are usually repeats but may differ in a detail not shown here. Equal values may be shown once.", "data": [{"molecule": "NC(=O)c1ncn([C@@H]2O[C@H](CO)[C@@H](O)[C@H]2O)c1N", "note": "[AICAR, reference compound]", "values": [{"measurement": "FOLD AKT ACTIVATION (OVER CONTROL)", "setting": "[1]; 50.0 microM", "value": 2.20, "unit": "fold"}, {"measurement": "FOLD AKT ACTIVATION (OVER CONTROL)", "setting": "[1]; 500.0 microM", "value": 5.45, "unit": "fold"}]}, {"molecule": "Nc1ncnc2c1ncn2[C@@H]1O[C@H](CO)[C@@H](O)[C@H]1O", "note": "[Adenosine]", "values": [{"measurement": "FOLD AMPK ACTIVATION (OVER CONTROL)", "setting": "[2]; 2.5 microM", "value": 1.87, "unit": "fold"}, {"measurement": "FOLD AMPK ACTIVATION (OVER CONTROL)", "setting": "[2]; 5.0 microM", "value": 1.64, "unit": "fold"}, {"measurement": "FOLD AMPK ACTIVATION (OVER CONTROL)", "setting": "[2]; 12.5 microM", "value": 1.83, "unit": "fold"}]}, {"molecule": "c1ccc(CNc2ncnc3nc[nH]c23)cc1", "note": "[Benzyl-Adenine]", "values": [{"measurement": "FOLD AMPK ACTIVATION (OVER CONTROL)", "setting": "[2]; 0.5 microM", "value": 2.18, "unit": "fold"}, {"measurement": "FOLD AMPK ACTIVATION (OVER CONTROL)", "setting": "[2]; 5.0 microM", "value": 2.70, "unit": "fold"}, {"measurement": "FOLD AMPK ACTIVATION (OVER CONTROL)", "setting": "[2]; 50.0 microM", "value": 2.92, "unit": "fold"}]}, {"molecule": "CC(C)=CCNc1ncnc2nc[nH]c12", "note": "[Gamma, Gamma-Dimethylally-6-Aminopurine]", "values": [{"measurement": "FOLD AKT ACTIVATION (OVER CONTROL)", "setting": "[1]; 0.8 microM", "value": "1.90 fold and 3.56 fold"}, {"measurement": "FOLD AKT ACTIVATION (OVER CONTROL)", "setting": "[1]; 2.0 microM", "value": 1.32, "unit": "fold"}, {"measurement": "FOLD AMPK ACTIVATION (OVER CONTROL)", "setting": "[2]; 0.5 microM", "value": 2.82, "unit": "fold"}, {"measurement": "FOLD AMPK ACTIVATION (OVER CONTROL)", "setting": "[2]; 5.0 microM", "value": 2.45, "unit": "fold"}, {"measurement": "FOLD AMPK ACTIVATION (OVER CONTROL)", "setting": "[2]; 50.0 microM", "value": 2.11, "unit": "fold"}]}, {"molecule": "Nc1nc2c(ncn2[C@@H]2O[C@H](CO)[C@@H](O)[C@H]2O)c(=O)[nH]1", "note": "[Guanosine]", "values": [{"measurement": "effect on Akt activity (in words)", "setting": "[1]", "value": "potent activators of AMPK as well as Akt"}, {"measurement": "FOLD AMPK ACTIVATION (OVER CONTROL)", "setting": "[2]; 5.0 microM", "value": 3.70, "unit": "fold"}, {"measurement": "effect on AMPK activity (in words)", "setting": "[2]", "value": "potent activators of AMPK"}]}, {"molecule": "OC[C@H]1O[C@@H](n2cnc3c(NCc4ccco4)ncnc32)[C@H](O)[C@@H]1O", "note": "[Kinetin Riboside]", "values": [{"measurement": "FOLD AKT ACTIVATION (OVER CONTROL)", "setting": "[1]; 0.8 microM", "value": 3.71, "unit": "fold"}, {"measurement": "FOLD AKT ACTIVATION (OVER CONTROL)", "setting": "[1]; 2.0 microM", "value": 5.14, "unit": "fold"}, {"measurement": "FOLD AKT ACTIVATION (OVER CONTROL)", "setting": "[1]; 5.0 microM", "value": 3.32, "unit": "fold"}, {"measurement": "FOLD AMPK ACTIVATION (OVER CONTROL)", "setting": "[2]; 3.0 microM", "value": 12.00, "unit": "fold"}]}, {"molecule": "CC(=O)Nc1ccn([C@@H]2O[C@H](CO)[C@@H](O)[C@H]2O)c(=O)n1", "note": "[N^4-Acetyl-Cytidine]", "values": [{"measurement": "FOLD AKT ACTIVATION (OVER CONTROL)", "setting": "[1]; 0.8 microM", "value": 2.45, "unit": "fold"}, {"measurement": "FOLD AKT ACTIVATION (OVER CONTROL)", "setting": "[1]; 2.0 microM", "value": "1.46 fold and 1.50 fold"}, {"measurement": "FOLD AKT ACTIVATION (OVER CONTROL)", "setting": "[1]; 5.0 microM", "value": "1.64 fold and 1.36 fold"}]}, {"molecule": "CC(=O)Nc1ncnc2c1ncn2[C@@H]1O[C@H](CO)[C@@H](O)[C@H]1O", "note": "[N^6-Acetyl-Adenosine]", "values": [{"measurement": "FOLD AMPK ACTIVATION (OVER CONTROL)", "setting": "[2]; 2.5 microM", "value": 1.08, "unit": "fold"}, {"measurement": "FOLD AMPK ACTIVATION (OVER CONTROL)", "setting": "[2]; 5.0 microM", "value": 2.41, "unit": "fold"}, {"measurement": "FOLD AMPK ACTIVATION (OVER CONTROL)", "setting": "[2]; 12.5 microM", "value": 2.18, "unit": "fold"}]}, {"molecule": "C/C(=C\\CNc1ncnc2nc[nH]c12)CO", "note": "[Trans-Zeatin]", "values": [{"measurement": "FOLD AKT ACTIVATION (OVER CONTROL)", "setting": "[1]; 1.0 microM", "value": 0.90, "unit": "fold"}, {"measurement": "FOLD AKT ACTIVATION (OVER CONTROL)", "setting": "[1]; 10.0 microM", "value": 0.86, "unit": "fold"}, {"measurement": "FOLD AMPK ACTIVATION (OVER CONTROL)", "setting": "[2]; 1.0 microM", "value": 2.33, "unit": "fold"}, {"measurement": "FOLD AMPK ACTIVATION (OVER CONTROL)", "setting": "[2]; 10.0 microM", "value": 4.27, "unit": "fold"}]}, {"molecule": "C/C(=C\\CNc1ncnc2[nH]cnc12)CO", "note": "[Zeatin]", "values": [{"measurement": "FOLD AKT ACTIVATION (OVER CONTROL)", "setting": "[1]; 1.0 microM", "value": 0.95, "unit": "fold"}, {"measurement": "FOLD AKT ACTIVATION (OVER CONTROL)", "setting": "[1]; 10.0 microM", "value": 1.36, "unit": "fold"}, {"measurement": "effect on Akt activity (in words)", "setting": "[1]", "value": "not Akt"}, {"measurement": "FOLD AMPK ACTIVATION (OVER CONTROL)", "setting": "[2]; 1.0 microM", "value": "2.33 fold and 2.15 fold"}, {"measurement": "FOLD AMPK ACTIVATION (OVER CONTROL)", "setting": "[2]; 10.0 microM", "value": 2.04, "unit": "fold"}, {"measurement": "effect on AMPK activity (in words)", "setting": "[2]", "value": "potent stimulator of AMPK"}]}, {"molecule": "Insulin", "values": [{"measurement": "FOLD AKT ACTIVATION (OVER CONTROL)", "setting": "[1]; 0.10 nanoM", "value": 1.75, "unit": "fold"}, {"measurement": "FOLD AKT ACTIVATION (OVER CONTROL)", "setting": "[1]; 25.0 nanoM", "value": 3.40, "unit": "fold"}, {"measurement": "FOLD AKT ACTIVATION (OVER CONTROL)", "setting": "[1]; 50.0 nanoM", "value": 3.28, "unit": "fold"}]}]}
